Laboratory results as given in PMC11418212, “Characterization of four structurally diverse inhibitors of SUR2-containing KATP channels” (Channels, 2024).

What was measured:
Test in all cases: Kir family selectivity thallium flux assay
Assay type in all cases: cell-based
Kir3.1/3.4 = target: T1, Kir3.1/3.4 (Homo sapiens, UniProt P48544+P48549); conditions: for IC50: thallium flux
T1 construct: expressed in transfected cells
T1 sequence (P48549 1-501): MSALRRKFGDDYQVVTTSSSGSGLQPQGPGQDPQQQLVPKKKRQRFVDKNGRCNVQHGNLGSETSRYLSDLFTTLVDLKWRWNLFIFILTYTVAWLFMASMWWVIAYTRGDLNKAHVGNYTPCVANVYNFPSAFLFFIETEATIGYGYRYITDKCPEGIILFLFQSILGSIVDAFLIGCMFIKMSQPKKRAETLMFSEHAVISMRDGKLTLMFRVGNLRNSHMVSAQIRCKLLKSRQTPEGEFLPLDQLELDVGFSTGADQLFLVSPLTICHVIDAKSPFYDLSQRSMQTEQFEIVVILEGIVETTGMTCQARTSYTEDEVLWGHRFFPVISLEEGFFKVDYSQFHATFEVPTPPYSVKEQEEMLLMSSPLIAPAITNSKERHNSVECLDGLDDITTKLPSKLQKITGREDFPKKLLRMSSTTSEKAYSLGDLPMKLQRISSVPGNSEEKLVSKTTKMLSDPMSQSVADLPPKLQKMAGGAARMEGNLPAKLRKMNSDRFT
T1 sequence (P48544 1-419): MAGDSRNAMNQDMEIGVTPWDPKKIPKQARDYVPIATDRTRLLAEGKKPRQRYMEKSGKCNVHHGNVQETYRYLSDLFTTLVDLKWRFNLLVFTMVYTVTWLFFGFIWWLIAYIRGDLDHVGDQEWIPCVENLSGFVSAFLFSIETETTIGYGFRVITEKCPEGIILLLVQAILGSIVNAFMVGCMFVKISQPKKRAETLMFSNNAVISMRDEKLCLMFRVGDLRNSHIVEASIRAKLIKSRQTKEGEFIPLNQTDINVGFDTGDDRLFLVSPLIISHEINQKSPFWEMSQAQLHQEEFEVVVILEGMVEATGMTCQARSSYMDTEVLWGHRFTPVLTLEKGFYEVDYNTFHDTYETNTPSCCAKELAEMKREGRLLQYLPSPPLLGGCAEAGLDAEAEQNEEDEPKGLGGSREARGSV
Experimental: (§1) Thallium flux assays were conducted using the established methods. Stably transfected T-REx-HEK-293 cells expressing Kir6.2/SUR1 or Kir6.1/SUR2B were cultured overnight in polyamine-coated plates (black-walled, clear-bottomed; BD, Bedford, MA) at a density of 20,000 cells in 20 µl per well of cell culture media. The expression of Kir6.2/SUR1 or Kir6.1/SUR2B channels was induced by treating cells with 1 µg/ml tetracycline overnight. The following day, cells were rinsed with an assay buffer (Hanks’ Balanced Salt Solution supplied with 20 mM HEPES), loaded with the thallium-sensor dye Brilliant Thallos-AM AM (Ion Bioscience, San Marcos, TX) for 1 h, and then washed again with assay buffer to remove unincorporated dye. The cell plate was subsequently placed in a Panoptic Kinetic Imaging Plate Reader (Wavefront Bioscience, Franklin, TN) and imaged at a frequency of 1 Hz using 482/35 nm (excitation) and 536/40 nm (emission) filter sets. Kir6.1/SUR2B channels were activated with 10 µM pinacidil, whereas Kir6.1/SUR1 was activated with 30 µM VU0071063 [34]. To activate KATP channels independent of activators with ATP-depletion method, cells were treated with a cocktail of metabolic inhibitors (2.5 mM sodium cyanide and 20 mM 2-deoxy glucose) for 25 min before imagine. Control and test compounds diluted freshly from DMSO stocks into assay buffer were added to wells for four minutes before adding 0.5 mM chloride-free thallium stimulus buffer (Ion Bioscience) to initiate thallium flux through the expressed KATP channels. Thallium flux was recorded from all 384-wells for 2 min before terminating the experiment. […] Selectivity assays against other Kir channels were performed as described previously.
(§2) To begin elucidating the binding site location of VU0212387, VU0543336, VU0605768, and VU0544086, we evaluated the activity of the inhibitors against KATP channels composed of different Kir and SUR subunit combinations expressed in HEK293 cells. Specifically, the compounds were tested against Kir6.1/SUR1, Kir6.2/SUR1, Kir6.1/SUR2A, Kir6.2/SUR2A, Kir6.1/SUR2B, and Kir6.2/SUR2B at a dose of 3 µM. […] We expanded the selectivity analysis to include 10 other members of the Kir channel family.

Kir1.1 = target: T2, Kir1.1 (Homo sapiens, UniProt P48048)
T2 construct: expressed in transfected cells
T2 sequence (P48048 1-391): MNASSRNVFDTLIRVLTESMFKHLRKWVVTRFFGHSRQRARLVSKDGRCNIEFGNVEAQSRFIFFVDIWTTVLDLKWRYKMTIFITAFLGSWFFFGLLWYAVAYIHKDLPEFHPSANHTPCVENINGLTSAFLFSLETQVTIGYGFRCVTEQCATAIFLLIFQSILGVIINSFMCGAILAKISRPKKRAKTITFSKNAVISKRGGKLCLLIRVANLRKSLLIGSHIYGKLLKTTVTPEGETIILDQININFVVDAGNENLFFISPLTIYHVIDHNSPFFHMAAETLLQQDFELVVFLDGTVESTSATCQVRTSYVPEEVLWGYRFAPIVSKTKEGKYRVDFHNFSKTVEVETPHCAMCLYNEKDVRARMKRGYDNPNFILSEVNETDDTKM
Experimental: as §1, §2

Kir2.3 = target: T3, Kir2.3 (Homo sapiens, UniProt P48050)
T3 construct: expressed in transfected cells
T3 sequence (P48050 1-445): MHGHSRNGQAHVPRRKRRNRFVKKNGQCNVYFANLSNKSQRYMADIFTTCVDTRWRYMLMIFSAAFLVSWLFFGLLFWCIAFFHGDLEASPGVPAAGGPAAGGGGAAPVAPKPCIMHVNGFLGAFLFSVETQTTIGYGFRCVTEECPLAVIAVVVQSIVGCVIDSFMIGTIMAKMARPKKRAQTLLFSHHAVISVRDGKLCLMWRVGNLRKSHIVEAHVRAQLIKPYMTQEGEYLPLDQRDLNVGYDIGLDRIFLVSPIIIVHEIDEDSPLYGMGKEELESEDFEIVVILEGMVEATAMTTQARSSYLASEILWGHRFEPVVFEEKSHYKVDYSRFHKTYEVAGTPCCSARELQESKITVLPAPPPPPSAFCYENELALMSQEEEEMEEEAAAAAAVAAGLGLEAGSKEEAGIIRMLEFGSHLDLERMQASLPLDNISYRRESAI
Experimental: as §1, §2

SMILES	inhibition at 30 µM (Kir3.1/3.4; observed at 30 µM, read-out: Percent maximal inhibition of Kir3.1/3.4) [%]	IC50 (Kir3.1/3.4) [µM]	IC50 (Kir1.1) [µM]	IC50 (Kir2.3) [µM]
O=C(NCc1cc(-c2ccncc2)n(C2CCCC2)n1)Nc1cccs1 [VU0544086, 1-((1-cyclopentyl-5-(pyridin-4-yl)-1 H-pyrazol-3-yl)methyl)-3-(thiophen-2-yl)urea]	92	16.2	> 30	> 30
O=C(NCC(O)(c1ccccc1)C(F)(F)F)c1ccc(OC(F)(F)F)cc1 (stereo not shown) [VU0543336, N-(3,3,3-trifluoro-2-hydroxy-2-phenylpropyl)-4-(trifluoromethoxy)benzamide]		> 30	> 30	> 30
O=C1c2oc3ccccc3c(=O)c2C(c2cccc(Br)c2)N1CCO (stereo not shown) [VU0605768, 1-(3-bromophenyl)-2-(2-hydroxyethyl)-1,2-dihydrochromeno[2,3-c]pyrrole-3,9-dione]		> 30	> 30	> 30
c1ccc2[nH]c(CSc3ncnc4c3oc3ccccc34)nc2c1 [VU0212387, 4-(((1 H-benzo[d]imidazol-2-yl)methyl)thio)benzofuro[3,2-d]pyrimidine]		> 30	> 30	> 30
